According to patent US8796277B2, “Radioprotector compounds and related methods” (Peter MacCallum Cancer Institute, priority 2006, dated 2014):

How the values were obtained:
[1] = tested on: transformed human keratinocyte cell line (FEP 1811); assay: Clonogenic survival cell culture assay for cytotoxicity (un-irradiated cells); assay type: cell-based; conditions: un-irradiated FEP 1811 cells, one hour drug incubation, colonies counted after eight days; concentrations in FIG. 1 plotted in μM; read-out: cytotoxicity C50 (drug concentration corresponding to 50% survival)
Procedure: (§1) The assay involves the transformed human keratinocyte cell line (FEP 1811) (as described by Smith et al (6)) and evaluation of cytotoxicity and radioprotective activity using the clonogenic survival endpoint. The details are described in detail in Martin et al (4) (the disclosure of which is included herein in its entirety by way of reference), but briefly, mid-log phase monolayer cultures are incubated with various concentrations of the test drugs for one hour, after which the monolayers are washed and dispersed into single cell suspensions using pronase, and finally appropriate numbers of cells are dispensed into Petri dishes. Colonies are counted after eight days incubation. For radioprotection studies, the monolayer cultures are irradiated in a ^137Cs-Gamma-cell radiation source to a dose of 12 Gy. The irradiation (with a dose rate of 0.6 Gy per minute) is started 30 minutes after addition of the test drug. After completion of irradiation, incubation of cultures is continued until the total time of exposure to the drug reaches 60 minutes. Cultures are then washed and plated for clonogenic survival as described for the cytotoxicity experiments. The experiments include untreated cultures as controls, and the plating efficiency of these controls is used to adjust that of the test cultures, in order to calculate the overall clonogenic survival.
In general each experiment involves investigation of 4 or 5 different test concentrations of the drug under study, with and without irradiation. The data analysis for the experiments with un-irradiated cells generates curves showing the relationship between cell survival and drug concentration (FIG. 1), from which the drug concentration corresponding to 50% survival (C50) is determined.

[2] = tested on: transformed human keratinocyte cell line (FEP 1811); assay: Clonogenic survival cell culture assay for radioprotective activity (cells irradiated to 12 Gy); assay type: cell-based; conditions: FEP 1811 cells, 12 Gy 137Cs gamma at 0.6 Gy per minute, irradiation started 30 minutes after drug addition, total drug exposure 60 minutes
Procedure: as §1
However, for some of the compounds, the survival decreases at higher drug concentrations, due to cytotoxicity. Non-linear regression analysis of the data, for example that in FIG. 2, generates a parameter denoted the protection factor (PF), which is the ratio of the maximum survival to the radiation-only (zero drug) survival. PF is therefore a measure of radioprotective efficacy. The C50 and PF values, and for a number of the compounds are collected in Table 1, with standard deviations (SD) for those compounds that have been studied in replicate experiments.

| SMILES | IC50 [1] [µM] | radioprotection PF (protection factor: ratio of the maximum survival to the radiation-only (zero drug) survival) [2] |
| --- | --- | --- |
| CN1CCN(c2ccc3[nH]c(-c4ccc5[nH]c(-c6ccc(N(C)C)cc6F)nc5c4)nc3c2)CC1 [Example 1, 4-dimethylamino-2-fluoro-1-(5′-(5″-(4′″-methylpiperazin-1′″-yl)benzimidazol-2″-yl)benzimidazol-2′-yl)benzene] | 28 | 9.3 |
| CN1CCN(c2ccc3[nH]c(-c4ccc5[nH]c(-c6c(F)cc(N(C)C)cc6F)nc5c4)nc3c2)CC1 [Example 2, 2,6-difluoro-4-dimethylamino-1-(5′-(5″-(4′″-methylpiperazin-1′″-yl)benzimidazol-2″-yl)benzimidazol-2′-yl)benzene] | 25 | 6.4 |
| CNc1ccc(-c2nc3cc(-c4nc5cc(N6CCN(C)CC6)ccc5[nH]4)ccc3[nH]2)c(F)c1 [Example 3, 2-fluoro-4-methylamino-1-(5′-(5″-(4′″-methylpiperazin-1′″-yl)benzimidazol-2″-yl)benzimidazol-2′-yl)benzene] | 218 | 7 |
| CN1CCN(c2ccc3[nH]c(-c4ccc5[nH]c(-c6ccc(N(C)C)cc6Cl)nc5c4)nc3c2)CC1 [Example 4, 2-chloro-4-dimethylamino-1-(5′-(5″-(4′″-methylpiperazin-1′″-yl)benzimidazol-2″-yl)benzimidazol-2′-yl)benzene] | 18 | 5.5 |
| COc1ccc(-c2nc3cc(-c4nc5cc(N6CCN(C)CC6)ccc5[nH]4)ccc3[nH]2)cc1F [Example 5, 3-fluoro-4-methoxy-1-(5′-(5″-(4′″-methylpiperazin-1′″-yl)benzimidazol-2″-yl)benzimidazol-2′-yl)benzene] | 91 | 2.1 |
| CN1CCN(c2ccc3[nH]c(-c4ccc5[nH]c(-c6ccc(F)cc6)nc5c4)nc3c2)CC1 [Example 6, 4-fluoro-1-{5′-[5″-(4′″-methylpiperazin-1′″-yl)benzimidazol-2″-yl]benzimidazol-2′-yl}benzene] | 34 | 4.5 |
| CN1CCN(c2ccc3[nH]c(-c4ccc5[nH]c(-c6ccc(N(C)C)c(F)c6)nc5c4)nc3c2)CC1 [Example 7, 4-dimethylamino-3-fluoro-1-(5′-(5″-(4′″-methylpiperazin-1′″-yl)benzimidazol-2″-yl)benzimidazol-2′-yl)benzene] | 26 | 3.2 |
| CNc1ccc(F)c(-c2nc3cc(-c4nc5cc(N6CCN(C)CC6)ccc5[nH]4)ccc3[nH]2)c1 [Example 8, 2-fluoro-5-methylamino-1-(5′-(5″-(4′″-methylpiperazin-1′″-yl)benzimidazol-2″-yl)benzimidazol-2′-yl)benzene] | 151 | 15.5 |
| CN1CCN(c2ccc3[nH]c(-c4ccc5[nH]c(-c6cc(N(C)C)ccc6F)nc5c4)nc3c2)CC1 [Example 9, 5-dimethylamino-2-fluoro-1-(5′-(5″-(4′″-methylpiperazin-1′″-yl)benzimidazol-2″-yl)benzimidazol-2′-yl)benzene] | 21.9 | 16.7 |
| CNc1cc(F)c(-c2nc3cc(-c4nc5cc(N6CCN(C)CC6)ccc5[nH]4)ccc3[nH]2)cc1F [Example 10, 2,5-difluoro-4-methylamino-1-(5′-(5″-(4′″-methylpiperazin-1′″-yl)benzimidazol-2″-yl)benzimidazol-2′-yl)benzene] | 51.4 | 9.62 |
| Cc1cc(N(C)C)ccc1-c1nc2ccc(-c3nc4ccc(N5CCN(C)CC5)cc4[nH]3)cc2[nH]1 [methylproamine, reference compound] | 19.3 | 10 |
